Activity calls are given as the source filed them.
What was measured:
[1] = target: T1, Voltage-gated inwardly rectifying potassium channel KCNH2 (Homo sapiens, UniProt Q12809); conditions: Potency;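 also: confirmatory quantitative high-throughput screen measuring inhibition of hERG channel activity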
INS1 = experiment: protection of INS-1E cells from cytokine death, dose response, ATP luminescence, dry powder (AID 488844); assay type: functional, cell-based; conditions: Rattus norvegicus
[2] = target: Luciferin 4-monooxygenase (Photinus pyralis, UniProt P08659); experiment: firefly luciferase enzyme inhibitors, dose response, biochemical, luminescence (AID 1891)
[3] = Luminescence Cell-Based Dose Confirmation HTS to Identify Inhibitors of Platelet Dense Granule Release. [Related pubchem assays: 1663 (Primary HTS), 1678 (Summary of Project)]; assay type: functional
Cytochrome P450 2C19 = Cytochrome P450 2C19 (Homo sapiens, UniProt P33261); experiment: Cytochrome panel assay with activity outcomes. Panel member name: p450-cyp2c19 Compounds with AC50 equal or less than 10 uM are considered active; assay type: functional; conditions: read-out: AC50
fMet-Leu-Phe receptor = fMet-Leu-Phe receptor (Homo sapiens, UniProt P21462); experiment: FPR ligands, dose response (AID 519); assay type: functional
Cytochrome P450 2D6 = Cytochrome P450 2D6 (Homo sapiens, UniProt P10635);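 also: CYP2D6 member of a cytochrome P450 panel assay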
[4] = target: T2, Mannose-6-phosphate isomerase (Homo sapiens, UniProt P34949); experiment: PMI enzyme inhibitors, confirmation, biochemical, fluorescence intensity (AID 1535)
T2 sequence (P34949 whole entry): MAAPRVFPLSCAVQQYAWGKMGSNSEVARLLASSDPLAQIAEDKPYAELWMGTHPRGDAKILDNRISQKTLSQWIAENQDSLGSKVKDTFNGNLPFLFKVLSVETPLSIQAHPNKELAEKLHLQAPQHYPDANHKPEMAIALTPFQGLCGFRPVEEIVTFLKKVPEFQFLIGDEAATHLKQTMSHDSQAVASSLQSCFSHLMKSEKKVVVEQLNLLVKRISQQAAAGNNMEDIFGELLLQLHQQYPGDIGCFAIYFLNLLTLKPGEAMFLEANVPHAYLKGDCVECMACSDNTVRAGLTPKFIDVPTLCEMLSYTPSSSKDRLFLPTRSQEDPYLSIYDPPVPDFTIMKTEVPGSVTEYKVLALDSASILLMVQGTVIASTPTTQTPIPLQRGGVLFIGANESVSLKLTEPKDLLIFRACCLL

Phosphomannomutase 2 = Phosphomannomutase 2 (Homo sapiens, UniProt O15305); experiment: Counter screen SAR assay for PMM2 inhibitors via a fluorescence intensity assay. [Related pubchem assays (depositor defined):AID1545, AID1574]
[5] = target: Dual specificity protein phosphatase 3 (Homo sapiens, UniProt P51452); experiment: SAR VHR1 Fluorescent Assay for In Vitro dose response studies Set 3. [Related pubchem assays (depositor defined):AID1654, AID1661, AID1878]; assay type: functional
[6] = target: T3, Short transient receptor potential channel 4 (Mus musculus, UniProt Q9QUQ5); experiment: SAR Analysis for the identification of selective inhibits of the transient receptor potential cation channel C4 (TRPC4): Automated Electrophysiology. [Related pubchem assays (depositor defined):AID2256]; assay type: functional
T3 sequence (Q9QUQ5 whole entry): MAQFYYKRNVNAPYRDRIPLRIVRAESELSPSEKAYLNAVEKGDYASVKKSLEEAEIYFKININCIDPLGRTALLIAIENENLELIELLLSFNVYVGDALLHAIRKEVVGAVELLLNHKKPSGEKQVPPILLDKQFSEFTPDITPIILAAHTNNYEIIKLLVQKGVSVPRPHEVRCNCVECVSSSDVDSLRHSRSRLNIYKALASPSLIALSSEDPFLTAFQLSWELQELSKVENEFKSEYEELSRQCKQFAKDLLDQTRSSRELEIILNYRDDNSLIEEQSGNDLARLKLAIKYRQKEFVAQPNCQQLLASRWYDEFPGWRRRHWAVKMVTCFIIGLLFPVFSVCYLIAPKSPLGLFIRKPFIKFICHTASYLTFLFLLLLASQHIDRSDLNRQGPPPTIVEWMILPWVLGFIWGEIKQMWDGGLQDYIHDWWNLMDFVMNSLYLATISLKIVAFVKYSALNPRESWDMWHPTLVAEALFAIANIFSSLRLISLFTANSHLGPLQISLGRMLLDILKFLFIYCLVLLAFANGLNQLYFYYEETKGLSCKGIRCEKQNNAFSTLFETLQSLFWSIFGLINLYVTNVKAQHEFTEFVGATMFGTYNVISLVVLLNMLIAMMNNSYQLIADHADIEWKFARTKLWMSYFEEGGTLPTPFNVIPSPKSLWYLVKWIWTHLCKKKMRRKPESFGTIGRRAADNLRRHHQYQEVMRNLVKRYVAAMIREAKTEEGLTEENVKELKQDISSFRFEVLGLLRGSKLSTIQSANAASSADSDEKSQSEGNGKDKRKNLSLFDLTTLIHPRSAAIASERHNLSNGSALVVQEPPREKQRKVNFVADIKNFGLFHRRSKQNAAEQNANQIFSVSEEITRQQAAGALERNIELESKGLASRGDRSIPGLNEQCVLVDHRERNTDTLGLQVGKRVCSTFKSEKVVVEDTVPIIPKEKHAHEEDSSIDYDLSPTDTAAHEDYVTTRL

[7] = target: T3, Short transient receptor potential channel 4; experiment: TRPC4 inhibition under acetylcholine activation, SAR follow-up, cell-based, acetylcholine stimulus, HEK293 TRPC4, Fluo-4 (AID 492996); assay type: functional
[8] = target: Short transient receptor potential channel 6 (Mus musculus, UniProt Q61143); experiment: TRPC6 inhibition potency of TRPC4 inhibitor analogs, dose response, selectivity assay for selective TRPC4 inhibitor project, HEK293 cells, membrane potential dye, IC50 (AID 492987); assay type: functional, cell-based
[9] = target: T3, Short transient receptor potential channel 4; experiment: TRPC4 inhibitor concentration-response, dose response, cell-based, HEK293 TRPC4/mu-opioid, DAMGO stimulus, Fluo-4 (AID 492994); assay type: functional
[10] = Luminescence Cell-Based Dose Retest to Confirm Inhibitors of Cancer Stem Cells. [Related pubchem assays (depositor defined):AID2717, AID2721]; assay type: functional; conditions: Homo sapiens
[11] = cytotoxicity in HMLE control line with eGFP shRNA, dose response, counter-screen for HMLE_sh_ECad selective toxicity project, cell-based, HMLE_sh_eGFP, luminescence (AID 463074); assay type: functional, Homo sapiens;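 also: HMLE human mammary epithelial cells expressing control shRNA against eGFP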
[12] = target: Potassium voltage-gated channel subfamily KQT member 2 (Rattus norvegicus, UniProt O88943); experiment: KCNQ2 channel activators, analog series, SAR follow-up, automated patch clamp, KCNQ2-CHO cells (AID 493113); assay type: functional
[13] = target: T4, Delta-type opioid receptor (Homo sapiens, UniProt P41143); experiment: HTS Image-Based Screen for Antagonists of the DOR Receptor. [Related pubchem assays (depositor defined):AID1777, AID1785, AID1786, AID2133]; assay type: functional
Mu-type opioid receptor = Mu-type opioid receptor (Homo sapiens, UniProt P35372); experiment: HTS Image-Based Screen for Agonists of the MOR Receptor. [Related pubchem assays (depositor defined):AID1777, AID1785, AID1786, AID2133]; assay type: functional;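 also: imaging of beta-arrestin GFP recruitment into spots after receptor activation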
[14] = target: E3 ubiquitin-protein ligase Mdm2 (Homo sapiens, UniProt Q00987); experiment: enhancers of MDM2-luciferase reporter signal, concentration-effect titration, project on inhibitors of MDM2 ubiquitin ligase, cellular assay, luminescent readout, 384-well plate format (AID 1394); assay type: functional;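 also: MDM2 E3 inhibitors raise luminescence so EC50 is for signal enhancement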
[15] = system: Streptococcus sp. 'group A'; experiment: growth inhibition of control SK(-) GAS strain, dose response, counter-screen for streptokinase expression inhibitor project, luminescence, kanamycin, BacTiterGlo, confirmation (AID 1900); assay type: functional, organism-based
[16] = target: T4, Delta-type opioid receptor; experiment: HTS Image-Based Screen for Agonists of the DOR Receptor. [Related pubchem assays (depositor defined):AID1777, AID1786, AID2133]; assay type: functional
[17] = target: T5, Kappa-type opioid receptor (Homo sapiens, UniProt P41145); assay type: functional
[18] = target: T1, Voltage-gated inwardly rectifying potassium channel KCNH2; experiment: hERG protection from proarrhythmic block, potency, dose response, cell-based, thallium flux (AID 2121); assay type: ADME
Beta-galactosidase = Beta-galactosidase (Escherichia coli, UniProt Q8VNN2); assay type: functional
[19] = target: T5, Kappa-type opioid receptor; assay type: functional; remark: listed apart in the source
[20] = target: Induced myeloid leukemia cell differentiation protein Mcl-1 (Homo sapiens, UniProt Q07820); assay type: functional
Streptococcus = experiment: Group A Streptococcus viability loss, dose response, counter-screen for streptokinase expression inhibitor project, luminescence, BacTiterGlo (AID 1915); assay type: functional, organism-based; conditions: read-out: EC50;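 also: potency for reduction of bacterial viability or growth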
[21] = target: T6, Heat shock factor protein 1 (Mus musculus, UniProt P38532); experiment: HSF1 potentiators in luciferase reporter cells, confirmation, cell-based, NIH3T3, luminescence, dose retest (AID 435004); assay type: functional;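 also: stress induced by proteasome inhibitor MG132 added 30 min after compound; luciferase reporter driven by HSF1 response element in NIH3T3 cells; actives raise luminescence as potentiators of the MG132 stress response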
T6 sequence (P38532 whole entry): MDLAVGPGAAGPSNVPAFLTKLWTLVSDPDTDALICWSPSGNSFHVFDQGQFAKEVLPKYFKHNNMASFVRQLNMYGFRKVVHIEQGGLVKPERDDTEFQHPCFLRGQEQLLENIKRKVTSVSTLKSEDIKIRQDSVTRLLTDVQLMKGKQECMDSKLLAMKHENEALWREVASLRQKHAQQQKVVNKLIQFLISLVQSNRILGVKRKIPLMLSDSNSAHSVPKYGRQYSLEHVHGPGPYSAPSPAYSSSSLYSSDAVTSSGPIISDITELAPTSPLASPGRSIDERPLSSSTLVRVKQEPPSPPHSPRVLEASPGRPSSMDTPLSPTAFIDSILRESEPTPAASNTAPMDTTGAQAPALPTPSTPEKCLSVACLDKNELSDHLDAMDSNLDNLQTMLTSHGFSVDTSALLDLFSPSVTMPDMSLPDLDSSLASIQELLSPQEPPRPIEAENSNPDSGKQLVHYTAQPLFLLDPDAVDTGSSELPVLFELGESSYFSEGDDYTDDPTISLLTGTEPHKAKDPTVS

Vero = experiment: cells; assay type: functional; conditions: Chlorocebus sabaeus
[22] = Shn3 3'UTR reporter inhibitors, dose response, cell-based, Clone20 osteoblasts, firefly luciferase, cherry-picked (AID 624132); assay type: functional;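 also: firefly luciferase luminescence from reporter carrying the Shn3 3'UTR in osteoblasts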
[23] = HepG2 cell cytotoxicity, dose response, cytotoxicity control for Shn3 inhibitor project, CellTiter-Glo, cherry-picked (AID 624134); assay type: functional, cell-based
[24] = control 3'UTR Renilla luciferase suppression, dose response, counter-screen for Shn3 inhibitor project, cell-based, Clone20-Shn3RL, cherry-picked (AID 624133); assay type: functional
[25] = target: Dual specificity protein kinase CLK1 (Homo sapiens, UniProt P49759); experiment: CLK1 kinase inhibitors, off-target check, dose response, selectivity assay for Dyrk1A inhibitor project, biochemical, cherry-picked samples (AID 588811)
Dual specificity protein kinase CLK1, sequence (P49759 whole entry): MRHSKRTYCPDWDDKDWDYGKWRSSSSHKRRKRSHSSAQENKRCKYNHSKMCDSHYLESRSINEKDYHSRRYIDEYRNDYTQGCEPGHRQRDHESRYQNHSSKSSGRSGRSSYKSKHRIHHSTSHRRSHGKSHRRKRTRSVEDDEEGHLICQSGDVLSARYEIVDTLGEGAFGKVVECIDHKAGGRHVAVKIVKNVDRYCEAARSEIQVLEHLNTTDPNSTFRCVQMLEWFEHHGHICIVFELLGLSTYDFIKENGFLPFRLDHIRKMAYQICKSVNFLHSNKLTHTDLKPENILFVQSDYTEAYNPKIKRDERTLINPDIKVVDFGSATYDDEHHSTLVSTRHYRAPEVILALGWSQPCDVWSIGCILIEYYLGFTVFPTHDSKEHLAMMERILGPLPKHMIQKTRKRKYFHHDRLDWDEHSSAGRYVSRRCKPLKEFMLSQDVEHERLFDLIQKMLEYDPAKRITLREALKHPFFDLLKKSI

T5 sequence (P41145 whole entry): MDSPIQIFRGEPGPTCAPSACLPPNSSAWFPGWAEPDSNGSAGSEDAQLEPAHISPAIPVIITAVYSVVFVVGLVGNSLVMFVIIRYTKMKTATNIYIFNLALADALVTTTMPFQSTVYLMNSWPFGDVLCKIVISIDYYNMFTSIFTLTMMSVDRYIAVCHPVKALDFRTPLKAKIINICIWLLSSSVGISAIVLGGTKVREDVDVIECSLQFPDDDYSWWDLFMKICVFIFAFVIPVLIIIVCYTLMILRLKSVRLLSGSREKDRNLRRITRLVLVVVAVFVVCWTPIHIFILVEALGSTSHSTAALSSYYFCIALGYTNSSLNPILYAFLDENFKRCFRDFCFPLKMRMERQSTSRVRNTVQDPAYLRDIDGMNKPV
T1 sequence (Q12809 whole entry): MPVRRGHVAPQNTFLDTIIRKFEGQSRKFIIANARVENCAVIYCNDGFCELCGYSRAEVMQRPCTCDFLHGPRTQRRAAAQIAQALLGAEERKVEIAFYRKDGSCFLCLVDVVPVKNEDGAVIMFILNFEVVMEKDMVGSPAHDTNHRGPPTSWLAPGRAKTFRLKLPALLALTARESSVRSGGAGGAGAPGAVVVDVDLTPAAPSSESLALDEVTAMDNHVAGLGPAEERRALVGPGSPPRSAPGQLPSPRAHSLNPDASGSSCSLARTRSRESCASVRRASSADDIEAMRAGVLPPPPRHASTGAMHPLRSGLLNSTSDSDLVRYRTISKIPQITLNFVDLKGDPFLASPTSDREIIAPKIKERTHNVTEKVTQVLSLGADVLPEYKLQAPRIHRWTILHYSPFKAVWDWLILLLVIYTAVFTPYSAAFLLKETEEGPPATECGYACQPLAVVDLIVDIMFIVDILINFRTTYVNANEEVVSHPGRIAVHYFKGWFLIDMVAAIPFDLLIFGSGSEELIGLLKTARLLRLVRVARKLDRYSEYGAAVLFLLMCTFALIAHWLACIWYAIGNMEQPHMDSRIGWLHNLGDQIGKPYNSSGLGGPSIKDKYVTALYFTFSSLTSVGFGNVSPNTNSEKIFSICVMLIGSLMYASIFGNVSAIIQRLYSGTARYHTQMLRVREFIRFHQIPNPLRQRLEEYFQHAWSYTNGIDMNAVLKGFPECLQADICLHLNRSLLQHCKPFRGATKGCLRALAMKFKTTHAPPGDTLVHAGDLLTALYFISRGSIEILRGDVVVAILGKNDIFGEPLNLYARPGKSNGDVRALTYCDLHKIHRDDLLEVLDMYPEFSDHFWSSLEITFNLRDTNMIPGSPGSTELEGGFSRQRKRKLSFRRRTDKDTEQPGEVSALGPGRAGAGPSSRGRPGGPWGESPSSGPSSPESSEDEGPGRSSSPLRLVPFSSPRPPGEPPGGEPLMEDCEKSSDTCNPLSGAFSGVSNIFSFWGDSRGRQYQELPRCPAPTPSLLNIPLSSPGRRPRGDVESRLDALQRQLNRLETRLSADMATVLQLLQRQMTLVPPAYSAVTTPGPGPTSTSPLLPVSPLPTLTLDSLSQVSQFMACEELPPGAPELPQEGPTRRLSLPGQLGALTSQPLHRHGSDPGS
T4 sequence (P41143 whole entry): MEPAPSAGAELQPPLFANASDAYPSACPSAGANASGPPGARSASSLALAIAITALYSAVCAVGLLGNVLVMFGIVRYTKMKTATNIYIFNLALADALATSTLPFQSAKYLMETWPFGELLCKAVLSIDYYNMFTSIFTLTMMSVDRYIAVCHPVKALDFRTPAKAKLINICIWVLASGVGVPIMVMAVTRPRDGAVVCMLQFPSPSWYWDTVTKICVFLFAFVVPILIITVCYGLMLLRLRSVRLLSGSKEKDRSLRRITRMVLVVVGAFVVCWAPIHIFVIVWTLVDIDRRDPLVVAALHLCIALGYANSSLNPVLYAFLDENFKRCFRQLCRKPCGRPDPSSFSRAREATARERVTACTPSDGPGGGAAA
Short transient receptor potential channel 6, sequence (Q61143 whole entry): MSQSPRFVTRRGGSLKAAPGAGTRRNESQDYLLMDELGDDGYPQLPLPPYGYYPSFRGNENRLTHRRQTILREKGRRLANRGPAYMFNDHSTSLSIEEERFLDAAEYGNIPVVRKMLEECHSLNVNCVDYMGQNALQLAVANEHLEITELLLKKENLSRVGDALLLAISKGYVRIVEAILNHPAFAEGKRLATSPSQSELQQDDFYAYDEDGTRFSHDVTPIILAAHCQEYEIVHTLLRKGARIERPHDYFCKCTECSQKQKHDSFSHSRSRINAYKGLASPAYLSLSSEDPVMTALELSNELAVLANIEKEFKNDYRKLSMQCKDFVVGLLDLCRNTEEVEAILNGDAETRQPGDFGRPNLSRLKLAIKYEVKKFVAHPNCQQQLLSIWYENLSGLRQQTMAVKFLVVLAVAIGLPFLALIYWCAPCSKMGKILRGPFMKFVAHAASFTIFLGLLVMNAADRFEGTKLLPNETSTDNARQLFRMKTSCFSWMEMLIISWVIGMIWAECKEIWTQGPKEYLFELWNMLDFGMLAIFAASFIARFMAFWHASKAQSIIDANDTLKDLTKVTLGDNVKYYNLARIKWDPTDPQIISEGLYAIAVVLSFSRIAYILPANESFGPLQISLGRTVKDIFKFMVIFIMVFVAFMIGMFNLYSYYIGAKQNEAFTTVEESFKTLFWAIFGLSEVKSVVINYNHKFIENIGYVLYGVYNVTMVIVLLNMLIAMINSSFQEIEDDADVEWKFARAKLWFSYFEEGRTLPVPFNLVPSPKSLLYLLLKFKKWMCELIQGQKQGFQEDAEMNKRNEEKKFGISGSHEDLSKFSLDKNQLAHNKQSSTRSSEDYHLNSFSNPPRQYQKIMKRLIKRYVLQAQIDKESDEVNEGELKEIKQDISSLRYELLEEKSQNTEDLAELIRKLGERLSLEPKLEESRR
Induced myeloid leukemia cell differentiation protein Mcl-1, sequence (Q07820 whole entry): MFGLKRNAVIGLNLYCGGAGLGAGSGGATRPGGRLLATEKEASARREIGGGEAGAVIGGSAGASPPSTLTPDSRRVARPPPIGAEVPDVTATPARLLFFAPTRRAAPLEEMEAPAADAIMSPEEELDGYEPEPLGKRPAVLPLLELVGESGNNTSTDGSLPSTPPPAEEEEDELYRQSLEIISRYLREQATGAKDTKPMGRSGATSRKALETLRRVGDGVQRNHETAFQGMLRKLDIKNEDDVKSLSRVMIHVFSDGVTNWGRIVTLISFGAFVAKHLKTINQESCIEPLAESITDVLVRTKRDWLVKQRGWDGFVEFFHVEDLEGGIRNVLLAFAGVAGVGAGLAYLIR
Dual specificity protein phosphatase 3, sequence (P51452 whole entry): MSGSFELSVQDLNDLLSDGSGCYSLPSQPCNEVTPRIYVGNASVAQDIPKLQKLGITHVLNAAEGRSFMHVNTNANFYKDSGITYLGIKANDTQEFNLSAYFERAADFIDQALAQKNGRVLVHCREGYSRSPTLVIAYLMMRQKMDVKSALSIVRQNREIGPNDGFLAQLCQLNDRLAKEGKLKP
Cytochrome P450 2D6, sequence (P10635 whole entry): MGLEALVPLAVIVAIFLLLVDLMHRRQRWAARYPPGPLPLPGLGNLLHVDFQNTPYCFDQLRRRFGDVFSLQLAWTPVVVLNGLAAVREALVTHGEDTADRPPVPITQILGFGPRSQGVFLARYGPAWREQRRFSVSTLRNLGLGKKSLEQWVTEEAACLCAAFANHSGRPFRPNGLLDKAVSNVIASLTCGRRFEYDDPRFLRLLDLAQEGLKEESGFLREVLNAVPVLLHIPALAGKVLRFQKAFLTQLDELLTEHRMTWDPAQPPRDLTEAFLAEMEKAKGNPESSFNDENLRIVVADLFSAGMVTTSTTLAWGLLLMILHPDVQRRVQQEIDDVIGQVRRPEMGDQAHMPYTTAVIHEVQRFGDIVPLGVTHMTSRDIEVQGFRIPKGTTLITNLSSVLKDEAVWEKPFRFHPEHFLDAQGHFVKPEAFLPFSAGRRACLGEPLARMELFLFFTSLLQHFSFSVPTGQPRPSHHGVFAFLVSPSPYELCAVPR
E3 ubiquitin-protein ligase Mdm2, sequence (Q00987 whole entry): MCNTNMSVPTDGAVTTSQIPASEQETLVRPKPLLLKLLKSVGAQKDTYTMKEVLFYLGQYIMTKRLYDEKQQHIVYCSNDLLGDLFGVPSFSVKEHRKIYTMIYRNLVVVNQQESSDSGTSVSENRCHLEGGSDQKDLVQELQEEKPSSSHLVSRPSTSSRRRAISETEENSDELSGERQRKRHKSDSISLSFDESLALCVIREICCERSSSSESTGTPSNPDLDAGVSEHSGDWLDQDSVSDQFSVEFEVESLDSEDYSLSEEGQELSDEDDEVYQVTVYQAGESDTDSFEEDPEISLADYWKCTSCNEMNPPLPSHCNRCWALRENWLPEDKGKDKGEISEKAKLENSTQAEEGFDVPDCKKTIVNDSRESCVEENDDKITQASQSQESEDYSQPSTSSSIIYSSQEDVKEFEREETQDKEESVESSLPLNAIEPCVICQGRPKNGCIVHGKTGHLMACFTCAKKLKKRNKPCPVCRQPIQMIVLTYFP

O=C(Cc1ccc(Cl)c(Cl)c1)N1CCCCC1CN1CCCC1 (centres undefined)
AC50 [1]: 25.1 µM (inconclusive)

COc1ccc(S(=O)(=O)N(C)C[C@@H]2Oc3c(NS(=O)(=O)c4ccc(Cl)cc4)cccc3C(=O)N([C@@H](C)CO)C[C@H]2C)cc1
AC50 (INS1): > 260 µM (inactive)

Cc1ccc(C2C(C(=O)c3sc(C)nc3C)=C(O)C(=O)N2CCN2CCOCC2)o1 (centres undefined)
EC50 [2]: > 112 µM (not active)
EC50 [3]: > 112 µM (not active)
AC50 (Cytochrome P450 2C19): 0.00562 µM (inconclusive)
Ki (fMet-Leu-Phe receptor): > 66.7 µM (inactive)
AC50 (Cytochrome P450 2D6): inconclusive

Clc1nss/c1=N\c1ccccc1Br
IC50 [4]: 11.9 µM (active)
IC50 (Phosphomannomutase 2): 57.3 µM (active)

CC(C)(C)c1ccc(C(=O)NCc2nnc(SCC(=O)Nc3nc4ccccc4s3)n2-c2cccc(Cl)c2)cc1
IC50 [5]: > 66 µM (inactive)

Cc1cc(N2CCC[C@@H]2C)nc2ccccc12
IC50 [6]: 4.26 µM (active)
IC50 [7]: 17.1 µM (active)
IC50 [8]: 11.8 µM (active)
IC50 [9]: 2.5 µM (active)

Cc1ccc(OCC(=O)NNC(=S)NC(=O)c2cccs2)c(C)c1
AC50 [10]: 9.13 µM (active)
AC50 [11]: 37.8 µM (active)

O=C(Nc1ccc(Cl)cc1Cl)C1CC2CCC1C2 (centres undefined)
EC50 [12]: 1.52 µM (active)

N=C1S/C(=C\c2ccc(-c3cccc(Cl)c3)o2)C(=O)N1c1nccs1
IC50 [13]: > 32 µM (inactive)
EC50 (Mu-type opioid receptor): > 32 µM (inactive)
EC50 [14]: 0.01 µM (not active)
EC50 [15]: < 0.06 µM (active)
EC50 [16]: > 32 µM (inactive)
IC50 [17]: 5.72 µM (active)
EC50 [18]: 0.42 µM (active)
EC50 (Beta-galactosidase): > 31.5 µM (inactive)
IC50 [19]: > 32 µM
IC50 [20]: 0.745 µM (active)
EC50 (Streptococcus): 0.228 µM (active)
EC50 [21]: 5.39 µM (active)
CC50 (Vero): 4.5 µM (active)
AC50 [22]: 2.82 µM (active)
AC50 [23]: 13.7 µM (active)
AC50 [24]: 6.17 µM (active)

CN(Cc1cccs1)c1ncnc2ccc(-c3ccc4c(c3)OCO4)cc12
AC50 [25]: < 0.00195 µM (active)

— ChEMBL document CHEMBL1201862, “PubChem BioAssay data set” (2004)
